Where a name gives a salt, the structure may show the parent alone.
Key:
[1] = molecular target: protease activity in feces; test: General Fecal Enzymes Method (casein-resorufin cleavage); format: biochemical, infant; conditions: fecal suspension, casein-resorufin substrate, pH 7.8, 37° C. for 60 minutes
Text: (§1) Pooled infant feces (at least five different samples) are collected in a manner to keep them free of urine and contamination and mixed with water to obtain a weight by weight (w/w) mixture (e.g., 1:50 w/w). This mixture is then mixed thoroughly to obtain a homogeneous suspension by homogenization or sonication. […] (Also, to ensure complete linearity the final absorbance should never exceed 1.5 OD405 units). If the activity of the pooled infant feces is outside this range, it is not possible to accurately determine IC50 values for putative protease inhibitors. However, the range of enzyme activity may be adjusted by increasing or decreasing the dilution factor accordingly for each enzyme. If this is not possible, a different group of subjects should be used to obtain the sample pool.
The general method described above for obtaining a sample of feces suitable for use in Specific Fecal Enzyme Methods can be easily adapted by one skilled in the art to obtain appropriate samples of feces suitable for use in the General Fecal Enzymes Method listed below without undue experimentation.
To test the efficacy of protease inhibitors against the protease activity in feces, 50 μL of inhibitor and 50 μL of fecal suspension are added to a 1.5 mL microcentrifuge tube. The microcentrifuge tube is mixed by inversion and incubated at 25° C. for 45 minutes. Then, 50 μL of protease buffer (200 mM TRIS buffer containing 20 mM CaCl2, pH 7.8) is added to the microcentrifuge tube. The microcentrifuge tube is again mixed by inversion and incubated at 25° C. for 45 minutes. […] The microcentrifuge tube is again mixed by inversion and incubated at 37° C. for 60 minutes for the substrate cleavage reaction to take place. Then, 480 μL of trichloroacetic acid (5% w/v) is added to stop the reaction and precipitate any unreacted casein-resorufin. The microcentrifuge tube is mixed by inversion incubated at 37° C. for 15 minutes. […] Then, 400 μL of the supernatant is added to 600 μL of assay buffer (0.5 M TRIS, pH 8.8) in a cuvette. […] The same procedure is repeated without the putative inhibitor. […] Before the start of the reaction, A and Ai are nearly zero. […] The rates, vi and v, and the inhibitor concentration [I] are used to calculate IC50 according to the equation expressed above.

[2] = molecular target: trypsin activity in feces; test: Fecal Trypsin Activity (Specific Fecal Enzyme Method); format: biochemical; conditions: pooled infant fecal suspension, pH 8.2, 25° C.; read-out: IC50 Specific Fecal Enzyme Methods Trypsin
Text: (§2) The following is a general description of a method for obtaining a sample of feces suitable for use in Fecal Protease Methods. However, one skilled in the art will be able to adapt the method to obtain appropriate samples of feces suitable for use in any of the Specific Fecal Protease Methods listed below (i.e., lipase, urease, and amylase) without undue experimentation.
as §1
To test the efficacy of protease inhibitors against the trypsin activity in feces, inhibitor and trypsin buffer (50 mM TRIS, 20 mM CaCl2, pH 8.2) are added in a cuvette to obtain a final volume of 0.8 mL. To this mixture, 0.1 mL of substrate (3 mM Cbz-arginine-p-nitroanilide) is added to the cuvette. The cuvette is mixed by inversion and incubated at 25° C. for 5 minutes. A volume of 0.1 mL of fecal suspension is added to the cuvette, mixed and the absorbance at 405 nm minus the absorbance at 490 nm are measured over 5 minutes at 25° C. (The absorbance at 490 nm is a correction factor for the background absorbance due to the particulate fecal material, i.e., “interference”). The rate of substrate cleavage in the presence of inhibitor (vi) is the slope of a plot relating the excess absorbance (i.e., the absorbance at 405 nm minus the absorbance at 490 nm) versus time. The same procedure is repeated without the putative inhibitor. The rate of substrate cleavage in the absence of inhibitor (v) is the slope of a plot relating the excess absorbance versus time. The rates, vi and v, and the inhibitor concentration [I] are used to calculate IC50 according to the equation expressed above.

[3] = molecular target: chymotrypsin activity in feces; test: Fecal Chymotrypsin Activity (Specific Fecal Enzyme Method); format: biochemical; conditions: pooled infant fecal suspension, pH 7.6, 25° C.; read-out: IC50 Specific Fecal Enzyme Methods Chymotryp.
Text: The following is a general description of a method for obtaining a sample of feces suitable for use in Fecal Protease Methods. However, one skilled in the art will be able to adapt the method to obtain appropriate samples of feces suitable for use in any of the Specific Fecal Protease Methods listed below (i.e., lipase, urease, and amylase) without undue experimentation. […] Pooled infant feces (at least five different samples) are collected in a manner to keep them free of urine and contamination and mixed with water to obtain a weight by weight (w/w) mixture (e.g., 1:50 w/w). This mixture is then mixed thoroughly to obtain a homogeneous suspension by homogenization or sonication. […] (Also, to ensure complete linearity the final absorbance should never exceed 1.5 OD405 units). If the activity of the pooled infant feces is outside this range, it is not possible to accurately determine IC50 values for putative protease inhibitors. However, the range of enzyme activity may be adjusted by increasing or decreasing the dilution factor accordingly for each enzyme. If this is not possible, a different group of subjects should be used to obtain the sample pool. […] The cuvette is mixed by inversion and incubated at 25° C. for 5 minutes. […] The rate of substrate cleavage in the presence of inhibitor (vi) is the slope of a plot relating the excess absorbance (i.e., the absorbance at 405 nm minus the absorbance at 490 nm) versus time. The same procedure is repeated without the putative inhibitor. The rate of substrate cleavage in the absence of inhibitor (v) is the slope of a plot relating the excess absorbance versus time. The rates, vi and v, and the inhibitor concentration [I] are used to calculate IC50 according to the equation expressed above.

LAP activity in feces = test: Fecal LAP Activity (Specific Fecal Enzyme Method); format: biochemical; conditions: pooled infant fecal suspension, pH 7.2, 25° C.; read-out: IC50 Specific Fecal Enzyme Methods LAP
Text: as §2, §1
To test the efficacy of protease inhibitors against LAP activity in feces, inhibitor and LAP buffer (50 mM sodium phosphate, pH 7.2) are added in a cuvette to obtain a final volume of 0.95 mL. To this mixture, 0.03 mL of substrate (6 mM L-Leucine-p-nitroanilide) is added to the cuvette. The cuvette is mixed by inversion and incubated at 25° C. for 5 minutes. A volume of 0.02 mL of fecal suspension is added to the cuvette, mixed and the absorbance at 405 nm minus the absorbance at 490 nm measured over 5 minutes at 25° C. The rate of substrate cleavage in the presence of inhibitor (vi) is the slope of a plot relating the excess absorbance (i.e., the absorbance at 405 nm minus the absorbance at 490 nm) versus time. The same procedure is repeated without the putative inhibitor. The rate of substrate cleavage in the absence of inhibitor (v) is the slope of a plot relating the excess absorbance versus time. The rates, vi and v, and the inhibitor concentration [I] are used to calculate IC50 according to the equation expressed above.

Row | IC50 [2] | IC50 [3] | IC50 (LAP activity in feces) | SMILES | IC50 [1]
1 |  |  |  | NCCc1ccc(S(=O)(=O)F)cc1 [4-(2-aminoethyl)-benzenesulfonylfluoride hydrochloride] | 217 µM
2 | 100 µM | 100 µM | > 3 mM | O=C(O)CN(CCN(CC(=O)O)CC(=O)O)CC(=O)O [EDTA, ethylenediamine tetraacetic acid] | 

Reference: patent US6703536B2, “Disposable absorbent article having a skin care composition containing an enzyme inhibitor” (The Procter & Gamble Company, priority 1998, dated 2004)
